# According to ChEMBL document CHEMBL1201862, “PubChem BioAssay data set” (2004):
# Calls of active or inactive are those of the source.
# Key:
# [1] = target: T1, Sentrin-specific protease 7 (Homo sapiens, UniProt Q9BQF6); assay type: functional;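 also: Luminescence-based dose-response confirmation of ultra-high-throughput screening hits, measuring inhibition of SENP7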
# T1 sequence (Q9BQF6 whole entry): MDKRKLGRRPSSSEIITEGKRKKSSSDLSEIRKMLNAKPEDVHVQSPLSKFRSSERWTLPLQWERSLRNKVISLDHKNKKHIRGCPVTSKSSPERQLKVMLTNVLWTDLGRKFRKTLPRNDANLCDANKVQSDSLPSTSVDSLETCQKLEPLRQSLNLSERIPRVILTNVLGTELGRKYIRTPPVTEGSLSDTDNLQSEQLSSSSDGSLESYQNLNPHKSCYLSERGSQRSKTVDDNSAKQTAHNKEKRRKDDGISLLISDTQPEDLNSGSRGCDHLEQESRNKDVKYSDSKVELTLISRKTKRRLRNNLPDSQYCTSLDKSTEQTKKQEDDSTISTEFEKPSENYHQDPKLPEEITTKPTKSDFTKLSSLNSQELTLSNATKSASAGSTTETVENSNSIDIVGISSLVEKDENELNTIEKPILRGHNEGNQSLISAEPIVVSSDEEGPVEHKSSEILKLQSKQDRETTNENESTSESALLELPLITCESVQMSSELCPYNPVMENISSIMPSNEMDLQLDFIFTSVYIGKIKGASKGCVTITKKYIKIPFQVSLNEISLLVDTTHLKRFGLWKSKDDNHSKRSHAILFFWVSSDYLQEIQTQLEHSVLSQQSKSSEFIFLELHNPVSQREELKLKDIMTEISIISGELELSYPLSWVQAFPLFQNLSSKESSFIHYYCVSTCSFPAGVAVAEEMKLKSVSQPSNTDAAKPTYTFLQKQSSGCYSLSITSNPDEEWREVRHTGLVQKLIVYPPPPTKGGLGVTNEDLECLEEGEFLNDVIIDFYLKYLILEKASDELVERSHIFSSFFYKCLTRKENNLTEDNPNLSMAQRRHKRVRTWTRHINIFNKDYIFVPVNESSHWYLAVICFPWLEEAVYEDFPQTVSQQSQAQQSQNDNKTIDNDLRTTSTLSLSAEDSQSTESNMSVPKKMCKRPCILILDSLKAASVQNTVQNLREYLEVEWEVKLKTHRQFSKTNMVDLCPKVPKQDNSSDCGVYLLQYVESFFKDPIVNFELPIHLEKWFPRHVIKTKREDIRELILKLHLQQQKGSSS
# [2] = target: T2, Sentrin-specific protease 6 (Homo sapiens, UniProt Q9GZR1); assay type: functional;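 also: Luminescence-based dose-response confirmatory assay of SENP6 inhibition, following up an ultra-high-throughput screen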
# T2 sequence (Q9GZR1 whole entry): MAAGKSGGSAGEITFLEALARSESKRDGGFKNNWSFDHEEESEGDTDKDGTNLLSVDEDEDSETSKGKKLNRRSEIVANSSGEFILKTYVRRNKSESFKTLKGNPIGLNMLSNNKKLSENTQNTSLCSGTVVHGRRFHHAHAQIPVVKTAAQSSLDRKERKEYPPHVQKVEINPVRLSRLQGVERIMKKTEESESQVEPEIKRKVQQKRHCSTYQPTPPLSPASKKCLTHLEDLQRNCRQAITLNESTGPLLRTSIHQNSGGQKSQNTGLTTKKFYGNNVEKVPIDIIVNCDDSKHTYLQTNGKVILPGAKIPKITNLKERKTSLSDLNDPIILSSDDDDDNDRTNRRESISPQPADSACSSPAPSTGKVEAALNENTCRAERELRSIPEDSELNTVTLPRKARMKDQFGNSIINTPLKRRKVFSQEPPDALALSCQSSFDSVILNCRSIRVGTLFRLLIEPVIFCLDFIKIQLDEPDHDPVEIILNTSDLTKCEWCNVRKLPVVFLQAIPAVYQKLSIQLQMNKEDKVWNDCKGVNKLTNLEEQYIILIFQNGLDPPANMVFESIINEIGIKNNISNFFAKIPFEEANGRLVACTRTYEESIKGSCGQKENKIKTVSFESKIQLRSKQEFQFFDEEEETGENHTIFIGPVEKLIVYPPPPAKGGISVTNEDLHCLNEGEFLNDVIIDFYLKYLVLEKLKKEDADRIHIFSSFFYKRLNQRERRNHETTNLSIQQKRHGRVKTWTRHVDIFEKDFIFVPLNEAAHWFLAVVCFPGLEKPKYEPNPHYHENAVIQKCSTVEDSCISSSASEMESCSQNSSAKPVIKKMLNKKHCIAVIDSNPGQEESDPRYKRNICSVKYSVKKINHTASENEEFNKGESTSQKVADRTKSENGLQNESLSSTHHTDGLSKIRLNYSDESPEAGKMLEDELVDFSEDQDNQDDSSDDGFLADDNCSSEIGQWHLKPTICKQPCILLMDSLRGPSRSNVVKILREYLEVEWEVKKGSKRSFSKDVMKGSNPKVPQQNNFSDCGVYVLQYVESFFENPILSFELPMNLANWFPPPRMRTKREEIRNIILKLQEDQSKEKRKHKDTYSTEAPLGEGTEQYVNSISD
# [3] = target: T3, Sentrin-specific protease 8 (Homo sapiens, UniProt Q96LD8); assay type: functional;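 also: luminescence read-out of SENP8 inhibition, dose-response confirmation following an ultra-high-throughput screen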
# T3 sequence (Q96LD8 whole entry): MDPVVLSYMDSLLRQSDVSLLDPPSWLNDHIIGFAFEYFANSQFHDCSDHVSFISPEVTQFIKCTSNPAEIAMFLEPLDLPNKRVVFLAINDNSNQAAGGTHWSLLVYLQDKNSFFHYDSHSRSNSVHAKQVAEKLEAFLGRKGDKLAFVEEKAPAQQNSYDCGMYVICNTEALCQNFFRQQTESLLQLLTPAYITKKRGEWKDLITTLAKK
# Caspase-3 = target: T4, Caspase-3 (Homo sapiens, UniProt P42574); assay type: functional;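 also: Dose-response selectivity test against caspase-3 for candidate inhibitors of sentrin-specific proteases (SENPs)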
# T4 sequence (P42574 whole entry): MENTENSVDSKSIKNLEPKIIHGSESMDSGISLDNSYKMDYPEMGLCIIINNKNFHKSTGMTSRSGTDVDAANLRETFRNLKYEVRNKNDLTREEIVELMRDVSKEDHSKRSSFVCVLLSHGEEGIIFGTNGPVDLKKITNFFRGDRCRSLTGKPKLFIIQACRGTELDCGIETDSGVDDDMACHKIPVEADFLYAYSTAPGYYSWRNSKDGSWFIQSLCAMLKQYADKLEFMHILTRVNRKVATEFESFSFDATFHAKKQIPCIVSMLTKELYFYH
# [4] = target: Voltage-dependent T-type calcium channel subunit alpha-1H (Homo sapiens, UniProt O95180); assay type: functional;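 also: channel activity triggered by adding a high calcium stimulation buffer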
# Chain of Voltage-dependent T-type calcium channel subunit alpha-1H (O95180 whole entry): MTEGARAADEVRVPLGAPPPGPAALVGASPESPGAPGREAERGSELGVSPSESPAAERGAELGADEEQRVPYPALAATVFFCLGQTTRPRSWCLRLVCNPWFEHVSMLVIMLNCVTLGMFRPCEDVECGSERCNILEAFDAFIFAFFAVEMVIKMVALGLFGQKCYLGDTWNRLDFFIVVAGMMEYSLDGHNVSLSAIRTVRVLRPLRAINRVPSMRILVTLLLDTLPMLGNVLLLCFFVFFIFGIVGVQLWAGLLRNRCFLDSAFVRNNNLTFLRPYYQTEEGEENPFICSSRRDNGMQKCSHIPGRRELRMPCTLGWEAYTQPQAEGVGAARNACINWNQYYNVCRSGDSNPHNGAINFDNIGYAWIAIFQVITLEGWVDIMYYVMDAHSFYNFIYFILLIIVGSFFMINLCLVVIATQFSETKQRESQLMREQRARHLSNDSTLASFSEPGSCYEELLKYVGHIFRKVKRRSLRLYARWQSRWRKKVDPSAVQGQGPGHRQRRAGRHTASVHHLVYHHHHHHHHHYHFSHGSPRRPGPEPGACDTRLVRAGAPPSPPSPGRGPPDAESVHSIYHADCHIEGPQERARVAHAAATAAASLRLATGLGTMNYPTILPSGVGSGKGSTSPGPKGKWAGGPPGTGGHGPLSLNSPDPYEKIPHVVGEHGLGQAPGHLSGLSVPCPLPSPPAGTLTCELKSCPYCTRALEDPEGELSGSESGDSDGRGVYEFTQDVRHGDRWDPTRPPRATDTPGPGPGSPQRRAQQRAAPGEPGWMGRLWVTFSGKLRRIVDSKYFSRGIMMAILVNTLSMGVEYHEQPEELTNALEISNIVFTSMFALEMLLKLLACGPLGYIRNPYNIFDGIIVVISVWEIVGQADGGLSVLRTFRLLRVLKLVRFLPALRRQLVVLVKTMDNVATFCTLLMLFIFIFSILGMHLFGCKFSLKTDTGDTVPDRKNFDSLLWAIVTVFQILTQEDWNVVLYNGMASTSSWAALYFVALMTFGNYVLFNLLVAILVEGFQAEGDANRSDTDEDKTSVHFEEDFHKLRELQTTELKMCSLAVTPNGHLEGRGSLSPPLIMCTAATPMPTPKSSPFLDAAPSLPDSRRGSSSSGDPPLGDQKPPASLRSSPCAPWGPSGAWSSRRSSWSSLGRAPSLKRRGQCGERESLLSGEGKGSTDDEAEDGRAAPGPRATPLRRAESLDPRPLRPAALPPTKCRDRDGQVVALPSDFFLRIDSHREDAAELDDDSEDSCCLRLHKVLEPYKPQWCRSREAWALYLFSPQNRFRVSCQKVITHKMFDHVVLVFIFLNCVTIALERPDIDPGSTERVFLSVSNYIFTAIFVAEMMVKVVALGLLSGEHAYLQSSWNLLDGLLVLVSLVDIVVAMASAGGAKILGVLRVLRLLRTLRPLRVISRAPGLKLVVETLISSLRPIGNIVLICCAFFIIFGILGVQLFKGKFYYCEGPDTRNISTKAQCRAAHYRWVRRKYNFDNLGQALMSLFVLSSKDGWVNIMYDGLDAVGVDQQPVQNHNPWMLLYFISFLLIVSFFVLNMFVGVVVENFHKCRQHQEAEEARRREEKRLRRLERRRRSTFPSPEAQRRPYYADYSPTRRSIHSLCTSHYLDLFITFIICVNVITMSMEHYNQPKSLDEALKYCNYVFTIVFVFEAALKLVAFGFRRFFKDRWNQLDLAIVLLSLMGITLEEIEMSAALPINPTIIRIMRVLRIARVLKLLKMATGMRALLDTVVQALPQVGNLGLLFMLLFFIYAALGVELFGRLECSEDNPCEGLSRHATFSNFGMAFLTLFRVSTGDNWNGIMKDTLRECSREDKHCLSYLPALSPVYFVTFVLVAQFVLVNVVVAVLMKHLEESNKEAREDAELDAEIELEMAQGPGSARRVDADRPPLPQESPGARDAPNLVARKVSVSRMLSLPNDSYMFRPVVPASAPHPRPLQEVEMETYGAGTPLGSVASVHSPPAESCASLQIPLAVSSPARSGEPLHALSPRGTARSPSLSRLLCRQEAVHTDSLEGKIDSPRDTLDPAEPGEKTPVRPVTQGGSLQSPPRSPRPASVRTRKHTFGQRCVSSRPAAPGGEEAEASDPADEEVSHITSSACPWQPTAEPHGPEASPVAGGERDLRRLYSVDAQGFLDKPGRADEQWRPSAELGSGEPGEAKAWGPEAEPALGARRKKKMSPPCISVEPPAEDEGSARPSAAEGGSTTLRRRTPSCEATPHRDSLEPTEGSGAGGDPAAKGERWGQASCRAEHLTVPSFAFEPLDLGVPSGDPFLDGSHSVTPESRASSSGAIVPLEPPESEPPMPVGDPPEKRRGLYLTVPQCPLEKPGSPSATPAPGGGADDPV
# [5] = THP-1 cell cytotoxicity, dose response, cytotoxicity control for non-replicating M. tuberculosis project (AID 489025); assay type: functional
# cells = assay type: functional
# INS1 = experiment: beta cell apoptosis inhibitors, cytokine rescue, dose response, luminescence, retest (AID 449756); assay type: functional, cell-based; conditions: Rattus norvegicus;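 also: cell death triggered by IL-1 beta plus TNF-alpha plus IFN-gamma mixture; protective hits raise ATP signal compared with cytokine alone wells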
# Caspase-6 = target: T5, Caspase-6 (Homo sapiens, UniProt P55212); experiment: human caspase-6 inhibitors, dose response, biochemical, VEID-R110 fluorescence, cherry-pick (AID 720632)
# T5 sequence (P55212 whole entry): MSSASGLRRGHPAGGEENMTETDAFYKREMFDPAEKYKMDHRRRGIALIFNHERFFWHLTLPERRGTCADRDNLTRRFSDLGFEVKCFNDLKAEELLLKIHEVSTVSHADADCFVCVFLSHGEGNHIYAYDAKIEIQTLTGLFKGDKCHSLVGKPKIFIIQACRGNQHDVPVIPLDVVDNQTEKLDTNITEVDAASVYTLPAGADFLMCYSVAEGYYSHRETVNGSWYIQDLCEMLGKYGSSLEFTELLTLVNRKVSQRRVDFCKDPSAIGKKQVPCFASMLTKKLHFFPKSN
# Large T antigen = Large T antigen (Simian virus 40, UniProt P03070); assay type: functional, Betapolyomavirus macacae;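 also: Confirmatory-stage PubChem screen for compounds that inhibit SV40 T antigen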
# Chain of Large T antigen (P03070 whole entry): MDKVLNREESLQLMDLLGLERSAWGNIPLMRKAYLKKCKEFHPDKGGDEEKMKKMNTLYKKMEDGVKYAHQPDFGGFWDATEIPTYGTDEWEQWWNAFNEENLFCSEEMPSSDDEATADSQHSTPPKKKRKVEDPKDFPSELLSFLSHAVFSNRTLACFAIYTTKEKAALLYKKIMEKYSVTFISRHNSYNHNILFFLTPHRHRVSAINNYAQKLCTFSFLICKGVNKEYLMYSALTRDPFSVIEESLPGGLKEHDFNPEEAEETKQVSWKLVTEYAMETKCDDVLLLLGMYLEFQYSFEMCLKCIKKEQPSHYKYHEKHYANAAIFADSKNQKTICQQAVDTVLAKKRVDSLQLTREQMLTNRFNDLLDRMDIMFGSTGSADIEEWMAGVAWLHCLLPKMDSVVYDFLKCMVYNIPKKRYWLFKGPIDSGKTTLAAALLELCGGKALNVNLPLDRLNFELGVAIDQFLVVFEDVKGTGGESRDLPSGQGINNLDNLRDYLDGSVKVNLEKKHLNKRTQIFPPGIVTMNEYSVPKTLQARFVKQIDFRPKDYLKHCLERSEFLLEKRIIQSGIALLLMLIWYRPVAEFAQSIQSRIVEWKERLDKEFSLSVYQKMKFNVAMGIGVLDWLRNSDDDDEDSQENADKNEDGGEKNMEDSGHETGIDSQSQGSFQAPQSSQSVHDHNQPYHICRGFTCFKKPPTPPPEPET
# [6] = target: T6, Rac GTPase-activating protein 1 (Homo sapiens, UniProt Q9H0H5); experiment: MgcRacGAP GTPase-activating activity inhibitors, confirmation, biochemical, ADP Hunter fluorescence, primary and confirmatory (AID 624330); assay type: functional
# T6 sequence (Q9H0H5 whole entry): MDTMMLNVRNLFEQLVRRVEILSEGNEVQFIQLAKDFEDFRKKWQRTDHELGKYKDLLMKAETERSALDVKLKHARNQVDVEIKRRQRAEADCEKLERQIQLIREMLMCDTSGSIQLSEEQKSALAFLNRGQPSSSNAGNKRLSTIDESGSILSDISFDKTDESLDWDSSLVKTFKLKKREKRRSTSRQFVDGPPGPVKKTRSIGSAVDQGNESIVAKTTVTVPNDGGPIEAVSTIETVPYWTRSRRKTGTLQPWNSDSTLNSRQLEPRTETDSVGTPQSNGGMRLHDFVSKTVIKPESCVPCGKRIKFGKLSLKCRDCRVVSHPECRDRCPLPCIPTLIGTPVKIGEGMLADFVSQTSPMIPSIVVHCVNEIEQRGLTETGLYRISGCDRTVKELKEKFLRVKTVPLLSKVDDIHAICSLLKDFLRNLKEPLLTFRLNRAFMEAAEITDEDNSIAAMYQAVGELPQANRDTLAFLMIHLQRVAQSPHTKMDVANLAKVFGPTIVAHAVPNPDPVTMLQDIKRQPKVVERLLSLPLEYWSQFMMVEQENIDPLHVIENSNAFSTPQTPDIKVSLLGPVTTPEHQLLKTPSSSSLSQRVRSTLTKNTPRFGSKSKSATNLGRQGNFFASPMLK
# [7] = HeLa cell cytotoxicity, dose response, cytotoxicity control for MgcRacGAP inhibitor project (AID 624300); assay type: functional
# Streptokinase A = target: T7, Streptokinase A (Streptococcus pyogenes serotype M1, UniProt P10520); experiment: S. pyogenes streptokinase expression inhibitors, potency, dose response, plasminogen activation absorbance, OD405 (AID 1914); assay type: functional, Streptococcus pyogenes M1 GAS;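 also: secreted streptokinase activity via plasminogen activation per viability signal from cell pellet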
# T7 sequence (P10520 whole entry): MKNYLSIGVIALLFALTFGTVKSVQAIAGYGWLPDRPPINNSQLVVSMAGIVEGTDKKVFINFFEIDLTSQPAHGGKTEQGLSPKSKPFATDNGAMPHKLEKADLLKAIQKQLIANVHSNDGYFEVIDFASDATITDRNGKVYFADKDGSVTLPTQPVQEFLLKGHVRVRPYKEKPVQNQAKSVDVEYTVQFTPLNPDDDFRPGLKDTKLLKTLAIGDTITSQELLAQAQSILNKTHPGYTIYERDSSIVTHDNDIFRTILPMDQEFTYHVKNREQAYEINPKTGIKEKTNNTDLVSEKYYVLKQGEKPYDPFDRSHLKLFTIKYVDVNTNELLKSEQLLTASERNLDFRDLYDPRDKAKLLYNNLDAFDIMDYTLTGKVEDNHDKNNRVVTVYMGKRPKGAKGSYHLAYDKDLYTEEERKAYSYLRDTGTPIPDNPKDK
# Streptococcus = experiment: Group A Streptococcus viability loss, dose response, counter-screen for streptokinase expression inhibitor project, luminescence, BacTiterGlo (AID 1915); assay type: functional, organism-based;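 also: potency for reduction of bacterial viability or growth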
# [8] = target: FAD-linked sulfhydryl oxidase ALR (Homo sapiens, UniProt P55789); experiment: inhibitors of human ALR sulfhydryl oxidase, dose response, biochemical, H2O2 detection, luminescence, cherry-pick (AID 493248)
# Chain of FAD-linked sulfhydryl oxidase ALR (P55789 whole entry): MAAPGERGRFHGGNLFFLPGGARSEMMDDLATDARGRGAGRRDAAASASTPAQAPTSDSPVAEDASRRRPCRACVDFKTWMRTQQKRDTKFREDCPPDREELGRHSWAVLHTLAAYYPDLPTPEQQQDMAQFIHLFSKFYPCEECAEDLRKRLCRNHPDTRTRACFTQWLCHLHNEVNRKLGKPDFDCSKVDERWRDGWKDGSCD
# [9] = test system: Streptococcus sp. 'group A'; experiment: growth inhibition of control SK(-) GAS strain, dose response, counter-screen for streptokinase expression inhibitor project, luminescence, kanamycin, BacTiterGlo, confirmation (AID 1900); assay type: functional, organism-based
# [10] = IGROV1 ovarian cancer cell cytotoxicity, dose response, PAX8 inhibitor project, plate reader, dry powder samples (AID 743043); assay type: functional, cell-based; conditions: IGROV-1
# Paired box protein Pax-8 = Paired box protein Pax-8 (Homo sapiens, UniProt Q06710); experiment: inhibitors of PAX8-driven TPO luciferase reporter, dose response, RMG-I cells, cherry-pick (AID 687027); assay type: functional, cell-based;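 also: luciferase reporter driven by Pax8 target thyroperoxidase promoter measured by SteadyGlo luminescence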
# Chain of Paired box protein Pax-8 (Q06710 whole entry): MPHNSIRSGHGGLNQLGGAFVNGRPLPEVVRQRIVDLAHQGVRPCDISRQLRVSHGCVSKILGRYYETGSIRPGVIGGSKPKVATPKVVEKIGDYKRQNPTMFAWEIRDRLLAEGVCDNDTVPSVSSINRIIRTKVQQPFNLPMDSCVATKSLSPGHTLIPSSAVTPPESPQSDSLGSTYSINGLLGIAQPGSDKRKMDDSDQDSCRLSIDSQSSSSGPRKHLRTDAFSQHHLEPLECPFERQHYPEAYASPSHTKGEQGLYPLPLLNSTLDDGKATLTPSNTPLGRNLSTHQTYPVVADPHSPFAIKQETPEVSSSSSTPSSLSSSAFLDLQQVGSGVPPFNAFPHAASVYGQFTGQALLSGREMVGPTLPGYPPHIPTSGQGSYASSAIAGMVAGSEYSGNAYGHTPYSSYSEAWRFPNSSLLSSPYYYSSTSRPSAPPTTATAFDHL
# [11] = cytotoxicity in OVCAR8 ovarian cancer cells, dose response, PAX8 project, cell-based, plate reader, dry powder samples (AID 743197); assay type: functional; conditions: OVCAR-8
# [12] = NIH:OVCAR-3 ovarian cancer cell cytotoxicity, dose response, PAX8 inhibitor project, plate reader, dry powder samples (AID 743044); assay type: functional, cell-based
# Cytochrome P450 3A4 = Cytochrome P450 3A4 (Homo sapiens, UniProt P08684); conditions: Potency;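 also: confirmatory qHTS run detecting inhibitors and substrates of CYP3A4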
# Chain of Cytochrome P450 3A4 (P08684 whole entry): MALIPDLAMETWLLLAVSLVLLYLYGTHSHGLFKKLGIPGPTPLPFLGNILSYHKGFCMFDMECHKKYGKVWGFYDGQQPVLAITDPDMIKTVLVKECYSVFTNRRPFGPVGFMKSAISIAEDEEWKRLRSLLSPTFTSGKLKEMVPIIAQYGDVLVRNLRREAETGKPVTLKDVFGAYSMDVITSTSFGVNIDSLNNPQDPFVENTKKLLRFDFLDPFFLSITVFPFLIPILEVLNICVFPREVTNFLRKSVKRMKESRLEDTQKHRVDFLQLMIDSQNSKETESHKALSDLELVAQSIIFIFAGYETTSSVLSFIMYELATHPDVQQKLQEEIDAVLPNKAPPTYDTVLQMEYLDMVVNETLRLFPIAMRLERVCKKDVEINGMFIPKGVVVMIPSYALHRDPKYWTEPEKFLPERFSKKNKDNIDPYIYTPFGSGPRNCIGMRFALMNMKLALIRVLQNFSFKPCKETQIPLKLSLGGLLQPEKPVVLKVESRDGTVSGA
smiles,measurement,setting,value
c1ccc(Nc2ncnc3c2oc2ccccc23)cc1,IC50,[1],11.9 µM (active)
same,IC50,[2],> 100 µM (inactive)
same,IC50,[3],> 100 µM (inactive)
same,IC50,Caspase-3,31.3 µM (active)
O=C(CSCc1nc2ccccc2[nH]1)N1CCN(c2cccc(Cl)c2)CC1,EC50,[4],3.55 µM (active)
Cc1nc(CS(=O)(=O)c2ccc(Cl)cc2)cc(Sc2ccc(Cl)cc2)n1,EC50,[4],4.35 µM (active)
Nc1ncnc(Oc2cccc3cccnc23)c1[N+](=O)[O-],CC50,[5],39.5 µM (active)
same,IC50,cells,10.8 µM (active)
CC(C)(C)n1nnnc1C(c1ccc(F)cc1)N(Cc1ccc(F)cc1)Cc1ccco1 (stereo not given),EC50,[4],2.6 µM (active)
same,AC50,INS1,8.41 µM (active)
Cn1cnnc1SCC(=O)Nc1ncc([N+](=O)[O-])s1,AC50,Caspase-6,3.04 µM (active)
CCO/C=C1/C(=O)N(c2ccc(OC)cc2)C(=O)c2ccccc21,IC50,[1],25.8 µM (active)
same,IC50,[2],8.55 µM (active)
same,IC50,[3],11.6 µM (active)
same,IC50,Caspase-3,7.36 µM (active)
Cc1ccc(C2=NOC(=O)/C2=C\c2ccc(C)o2)cc1,IC50,Large T antigen,78.1 µM (active)
same,IC50,[6],44.8 µM (active)
same,CC50,[7],100 µM (active)
Oc1ccc(C(c2nnnn2C2CCCC2)N2CCc3ccccc3C2)cc1 (stereo not given),EC50,[4],5.95 µM (active)
O=C(NCCCN1CCOCC1)c1c(O)nc2c(Br)cc(Br)cc2c1O,CC50,[5],> 40 µM (active)
same,IC50,cells,1.04 µM (active)
COc1cc(/C=N/NC(=O)c2cc(-c3c(C)nn(-c4ccccc4)c3C)[nH]n2)ccc1O,EC50,Streptokinase A,43.9 µM (inconclusive)
same,EC50,Streptococcus,4.37 µM (active)
same,IC50,[6],39.1 µM (active)
same,CC50,[7],90 µM (active)
same,AC50,[8],0.105 µM (active)
same,EC50,[9],4.04 µM (active)
COc1ccc(S(=O)(=O)N(C)C[C@@H]2OCCCC[C@H](C)Oc3ccc(NS(=O)(=O)c4ccccc4)cc3C(=O)N([C@H](C)CO)C[C@H]2C)cc1,AC50,[10],43.2 µM (active)
same,AC50,Paired box protein Pax-8,5.15 µM (active)
same,AC50,[11],> 70 µM (inactive)
same,AC50,[12],28.2 µM (active)
COc1cc(-c2cc(-c3ccc(O)cc3)nc(N)c2C#N)ccc1O,IC50,[6],34.7 µM (active)
same,CC50,[7],100 µM (active)
COc1c2ccoc2nc2c(OC)c(OCC(O)C(C)(C)O)ccc12 (stereo not given) [EVOXINE],AC50,Cytochrome P450 3A4,15.8 µM (inconclusive)
COC(=O)c1c(C)cc(O)cc1O [METHYL ORSELLINATE],AC50,Cytochrome P450 3A4,12.6 µM (inconclusive)
